Earlier results as cited in US7419669B2, “Peptide epitopes common to antigens of the same multigene family” (Institut Gustave Roussy, priority 2002, dated 2008).

Key:
tumor cells = conditions: MICONNET et al., 2000; cited from earlier work
[1] = target: HLA-B*3701 allele of MHC-I (Homo sapiens, UniProt P01889, A329T/A93T/A95T/C349S/D138N/D201E/D98Y/E176V/E187T/E204Q/E69T/G107R/H137Y/K202T/L119I/N104T/N87E/Q94N/R106L/R155S/R180D/S101D/S121R/V306I/Y123S/Y140F/Y33H/Y91S); conditions: TANZARELLA et al., 1999; cited from earlier work

Sequence	processing of the epitope by tumor cells (tumor cells)	binding to HLA-B*3701 [1]
FLWGPRALV	not efficiently processed by tumor cells	–
REPVTKAEML (listed as Homo sapiens)	–	binds to the HLA-B*3701 allele of MHC-I
